Laboratory results reported in paper PMC3684770 (Free Radical Biology & Medicine, 2013).
Where two headings read alike, the source gives them in different places.

Experiments:
Nrf2-ARE pathway [1] = experiment: ARE reporter assay in CHO 4xARE-TK-GFP cells (Spectrum library hits)
Description: The Z′ score was calculated as follows Z′=1−(3SD^++3SD^−)/(Ave^+–Ave^−) where SD^+ = standard deviation of positive control wells; SD^− = standard deviation of negative control wells; Ave^+ = average fluorescence reading of positive control wells; Ave^− = average fluorescence reading of negative control wells.
Media was removed by hand and replaced (1 compound/well) with the Spectrum library diluted to 10 μM in 0.1% DMSO using a Q-bot liquid handling system (Genetix, New Milton, UK). […] The TK-GFP CHO ARE cell line was screened twice in a single point assay and the control TK-GFP CHO cell line was screened once to eliminate false positives.
The compounds were applied in triplicate to confluent cells in 96 well plates in serum free medium for 24 hours and the induction of GFP measured in a fluorescence plate reader.
In order to screen the Spectrum collection of 2000 molecules the reporter assay was optimised in […]. To assess the suitability of the assay for library screening, a Z’ score calculation was performed by treating alternate wells with vehicle (0.1% DMSO) and 10 µM Ebselen as a positive control (see calculation in Methods). […] The library was subsequently screened at a single point concentration of 10µM for every compound. Drug library dilutions and plating were performed with a Q-BOT liquid handling system and both the 4xARE-TK-GFP reporter cell line and TK-GFP control cell line were tested for their response to the compounds. Hits were identified as having data points more than three standard deviations above the background level, which was the average value of 24 wells treated with vehicle (0.1% DMSO) only. Hit compounds were checked to see if they generated a response in the control cell line, for example by non-specific activation of transcription or autofluorescence. […] The library screen was repeated once in the 4xARE –TK-CHO cell line and compounds classed as hits in both screens were taken forward for further assessment.

NSC34 cells [2] = tested on: NSC34 cells
Description: (§3) Media were then replaced with serum-free, phenol-free media for 5 h.

[3] = tested on: 1321N1 astrocyte cell line
Description: as §3

C6 astrocyte cell line [4] = tested on: C6 astrocyte cell line
Description: as §3

C6 astrocyte cell line [5] = experiment: C6 oxidative stress assay (serum withdrawal, DCF); details: Rattus norvegicus, Astrocyte; for Emax: 24 h, read-out: C6 oxidative stress assay Max reduction; for IC50: read-out: C6 oxidative stress assay IC50
Description: as §3

NSC34 cells [6] = experiment: NSC34 oxidative stress assay (serum withdrawal, DCF); details: Mus musculus, NSC-34, 24 h, read-out: NSC34 oxidative stress assay Max reduction
Description: as §3

[7] = tested on: 1321N1 astrocyte cell line; experiment: 1321N1 oxidative stress assay (serum withdrawal, DCF); details: Homo sapiens; for Emax: 1321-N1, 24 h, read-out: 1321N1 oxidative stress assay Max reduction; for IC50: 1321-N1, read-out: 1321N1 oxidative stress assay IC50
Description: as §3

Nrf2-ARE pathway [8] = experiment: ARE reporter assay in C6 astrocyte cell line (C6-ARE); type: cell-based, rat
Excerpt: (§1) Chinese hamster ovary (CHO), NSC34 mouse motor neuronal cells […] The ARE-TK-GFP and TK-GFP reporter constructs were a kind gift from William E. Fahl McArdle Laboratory for Cancer Research, University of Wisconsin. […] The NSC34 cell lines stably expressing G93A mutant hSOD1 have been described previously. […] Mouse embryonic fibroblasts were generated and maintained as described previously.

Nrf2-ARE pathway [9] = experiment: ARE reporter assay in NSC34 cell line (NSC34-ARE); type: cell-based, mouse
Excerpt: as §1

[10] = tested on: HO-1 and NQO1 gene expression; experiment: Q-RTPCR of Nrf2-regulated genes in C6 cells; type: cell-based, rat; details: C6, 24-h treatment at EC50 and EC90
Description: (§2) Nrf2 Target gene expression was determined using Q-RTPCR as described previously using the following primers: Ho-1 forward primer, cac ttc gtc aga ggc ctg cta; Ho-1 reverse primer, gcg gtg tct ggg atg agc ta; Nqo1 forward primer, cgc ctg agc cca gat att gt; Nqo1 reverse primer, act gca atg gga act gaa ata tca; GAPDH forward, gaa acc tgc caa gta tga tga cat; GAPDH reverse, ggt cct cag tgt agc cca aga t.

[11] = tested on: HO-1 and NQO1 gene expression; experiment: Q-RTPCR of Nrf2-regulated genes in primary mouse astrocytes; type: cell-based; details: 24-h treatment at EC50 and EC90
Description: as §2

[12] = tested on: NQO1 and HO-1 gene expression; experiment: Q-RTPCR in astrocytes from SOD1G93A transgenic mice; type: cell-based, mouse; details: G93A SOD1 astrocytes, 24-h pretreatment at EC90 (andrographolide also EC50)
Description: as §2

primary mouse astrocytes = experiment: Total glutathione assay in primary mouse astrocytes and conditioned media; type: cell-based; details: 24-h pretreatment
Description: Primary astrocytes were grown to confluency in 24-well plates and then treated with drug (or 0.05% DMSO vehicle) in phenol red-free DMEM containing 10% FBS and penicillin/streptomycin for 24 h. Conditioned medium was collected and astrocytes were then washed in ice-cold PBS before addition of 250 μl/well of sulphosalicylic acid (SSA, 5% (w/v)). Plates were frozen at −80 °C and thawed at 37 °C, twice, and then incubated at 4 °C for 15 min. The supernatant was removed and centrifuged at 13,000 g for 5 min. Conditioned medium samples were incubated at 80 °C for 15 min and then centrifuged at 13,000 g for 5 min. Samples were either used immediately or stored at −80 °C. Reaction mixture (150 μl/well; 100 mM potassium phosphate buffer, pH 7.0, 1 mM EDTA, 6 Units/ml glutathione reductase, 1.5 mg/ml 5,5′-dithiobis(2-nitrobenzoic acid)) was added to 10 μl of each sample or glutathione standard (0–50 μM reduced glutathione) in a 96-well plate and incubated at room temperature for 5 min before addition of 50 μl/well of NADPH solution (0.16 mg/ml). A412nm was measured every minute for 15 min and the total glutathione concentration (GSH + GSSG) was calculated from initial rates. Samples were tested in triplicate.

[13] = tested on: primary mouse motor neurons; experiment: Primary motor neuron/astrocyte coculture, menadione stress; type: cell-based; details: 24-h pretreatment, 6 h 10 µM menadione
Description: Mouse glial cultures were established based on published methods [[68,69]]. Primary spinal cord motor neurons (MNs) were cultured from E13.5 C57Bl/6 mouse embryos as described previously. Cocultures were allowed to establish for 2 weeks and neuroprotection assays performed. Cocultures were exposed to drug or vehicle for 24 h followed by a 6-h treatment with menadione (10 μM) to induce oxidative stress or with no stress to determine the effect of drug alone. Following stress treatment, coverslips were washed 3 times, fixed, and permeabilised, and MNs immunostained with SMI32 (Covance, UK). Total MNs were counted by fluorescence microscopy in a 1.5 cm^2 area per coverslip. A minimum of three repeats in triplicate were performed per condition. Both vehicle and drug treatments were counted with and without stress treatment, and results were analysed by two-way ANOVA using Bonferroni post tests.

[14] = Pharmacokinetic analysis in C57Bl/6 mice; type: in vivo, mouse; details: C57Bl/6, mouse, brain / plasma; iv 1 mg/kg; read-out: brain uptake (AUCinfinity brain / AUCinfinity plasma)
Description: Pharmacokinetic studies were performed by Pharmidex (London, UK). […] All concentrations were calculated with reference to the relevant standard curve. An extraction buffer (EB) solution of acetonitrile with 0.1% formic acid (Fisher Scientific, HPLC grade) and 500 ng/ml of propranolol as the internal standard (IS) was used for in all extraction protocols.

HO-1 gene expression = experiment: Pharmacodynamic analysis: gene expression in spinal cord; type: in vivo, mouse; details: 5 mg/kg sc, 48 h postdosing
Excerpt: RNA was isolated using Qiagen RNeasy mini kit and Q-RTPCR performed on HO-1 and NQO-1 genes as described previously.

SOD1G93A transgenic mice = experiment: SOD1G93A transgenic mouse model of ALS; type: in vivo
Description: Pharmacology experiments in SOD1^G93A transgenic mice were conducted according to the published guidelines for studies in this model. […] The litters were split to enable an even distribution of sex and parentage between the two comparison groups and the groups randomly assigned to treatment or control. […] Behavioural assessment was carried out blinded to treatment group. Rotarod training was performed over 3 days with 2 trials per day. Subsequently, the rotarod test was performed once per week in the afternoon. On each day, mice were tested twice with a rest period in between tests. The best score was taken for analysis. […] Latency to fall (s) was recorded in seconds for each mouse. […] They were placed on the catwalk apparatus in complete darkness and the recording of gait patterns was performed in a separate room. Multiple runs were recorded for each mouse and three selected for analysis. Processing of gait data was performed using the dedicated software, with the assignment of limbs performed manually and subsequent automated calculation of gait parameters.
Specimens were incubated overnight in 20% sucrose and then embedded in OCT embedding matrix. Thirty five-micrometer-thick longitudinal sections were collected. […] Images were captured on an Incell 2000 and innervated (yellow) or denervated (red) end-plates were counted with a minimum of 1000 NMJs counted per animal.

[15] = tested on: primary fibroblasts from ALS patients; experiment: Oxidative stress assay in ALS patient and control fibroblasts; type: cell-based, human; details: 4 µM
Description: Fibroblasts were obtained from human controls (n=3) and ALS patients with I113T SOD1 mutations (n=3) and sporadic ALS patients (n=2). […] The cells were incubated at 37 °C/5% CO2 overnight. The following day the media were removed and the cells were washed with 200 µl 1XP BS. Phenol red-free DMEM/F12 media (Sigma D6434) was added in the presence of 10% serum/2 mM Gln (++), 10% serum/0 mM Gln (+−), or 0% serum/0 mM Gln (−−). Cells were incubated at 37 °C/5% CO2 for 5 h.
Carboxy-H2DCFDA fluorescence was normalised to live cell number (total EthD1 signal after freeze/thaw – EthD1 signal after assay) to compare between the different cell lines. Data were analysed by one-way ANOVA with Bonferroni post tests using GraphPad Prism
DMEM/F12 (50 µl) media were added in the presence of 10% serum/0 mM Gln (+−) and the cells were incubated at 37 °C and 5% CO2 for 5 h.
The data were tested for normality and analysed by one-way ANOVA using GraphPad Prism.

[16] = tested on: primary fibroblasts from ALS patients; experiment: Menadione-induced cell death in fibroblasts (MTT); type: cell-based, human; details: sporadic and I113T SOD1 ALS fibroblasts, 4 µM
Description: The method used was essentially as described previously. Briefly methylthiazolyldiphenyl-tetrazolium bromide (MTT) was added to the cells and a blank well to a final concentration 0.5 mg/ml and incubated at 37 °C for 1–3 h depending on the cell line used. Cells and reaction product were solubilised in 20% SDS/50% DMF for 1 h with shaking at room temperature before reading the absorbance at 595 nm.

[17] = lowest dose at which a reduction in GFP fluorescence was observed

| Structure (SMILES) | EC50 (Nrf2-ARE pathway [1]; Cricetulus griseus) | Toxic dose (Nrf2-ARE pathway [1]; [17]) | NSC34 oxidative stress assay Toxic dose (NSC34 cells [2]) | C6 oxidative stress assay Toxic dose (C6 astrocyte cell line [4]) | Emax (C6 astrocyte cell line [5]) | IC50 (C6 astrocyte cell line [5]) | Emax (NSC34 cells [6]) | Emax [7] | IC50 [7] | 1321N1 oxidative stress assay Toxic dose [3] | other results |
| --- | --- | --- | --- | --- | --- | --- | --- | --- | --- | --- | --- |
| O=C(CCBr)N1CCN(C(=O)CCBr)CC1 [Pipobroman, reference compound] | 10 µM | 100 µM | none | none | 71% | 11 µM | 30% | 19% | 3.16 µM | – | 1321N1 oxidative stress assay Toxic dose ([3]; human): 10 µM |
| Oc1ccc(O)cc1 [Hydroquinone, reference compound] | 3.07 µM | 100 µM | None | None | 67% | 7.07 µM | 0% | 80% | 3.38 µM | None | – |
| C=C(C)C1(O)OC(=O)C=C1OC (centres unmarked) [Penicillic acid] | 14.9 µM | – | none | none | 68% | 4.62 µM | 9% | 45% | – | none | Toxic dose (Nrf2-ARE pathway [1]; Chinese hamster): 100 µM; maximal fold induction (Nrf2-ARE pathway [1]; Cricetulus griseus, CHO, 24 h, read-out: Fold GFP induction): 2.64 |
| CN1CCc2cccc3c2[C@@H]1Cc1ccc(O)c(O)c1-3 [S[+]-apomorphine] | – | – | – | – | – | – | – | – | – | – | potency of Nrf2-ARE activation compared with the R[–] enantiomer (Nrf2-ARE pathway [8]; C6 cells): equally potent; EC50 (Nrf2-ARE pathway [8]; Rattus norvegicus, C6 astrocyte cell line, concentration used in fibroblast assay, read-out: approximate EC50 concentration): ~4 µM; activation of Nrf2-ARE reporter (Nrf2-ARE pathway [9]): shows some activation; concentration showing activation of Nrf2-ARE reporter (Nrf2-ARE pathway [9]): ≥ 1 µM; HO-1 and NQO1 gene expression [10]: statistically significant changes in gene expression; HO-1 and NQO1 gene expression [11]: statistically significant changes in gene expression; transcripts for NQO1 and HO1 [12]: significant increase in transcripts; total glutathione levels (primary mouse astrocytes): enhance glutathione production; motor neuron numbers after menadione [13]: significant neuroprotective effects; Kp [14]: 2.28; HO-1 gene induction in whole spinal cord (HO-1 gene expression): 3.5 fold; time taken to reach a 20% decline in rotarod performance (median) (SOD1G93A transgenic mice; 5 mg/kg sc daily from Day 21, vehicle 6 weeks): 8 weeks; oxidised glutathione levels in spinal cord (SOD1G93A transgenic mice; 60 days of age, vehicle 7.1): 4.2 µM; gastrocnemius muscle innervation (SOD1G93A transgenic mice; 60 days of age, vehicle 28.1%): 39.5%; survival (SOD1G93A transgenic mice; failure of the righting response within 10 s): did not observe a significant improvement in survival; fore-limb and hind-limb stride length (gait analysis) (SOD1G93A transgenic mice; later stages of disease): significant delay in decline; motor neuron numbers at end-stage (SOD1G93A transgenic mice; mouse, in vivo): did not observe a significant improvement; reduction of oxidative stress (DCF) in control fibroblasts ([15]; control fibroblasts): nonsignificant; basal oxidative stress (DCF) in patient fibroblasts ([15]; sporadic and I113T SOD1 ALS fibroblasts, 24 h): significant reduction in basal oxidative stress; menadione-induced cell death (MTT) [16]: significantly attenuated cell death |
